Patent publication US11780830B2, “Triazolone derivatives or salts thereof and pharmaceutical compositions comprising the same” (YUHAN CORPORATION, priority 2018, dated 2023)
Where a name gives a salt, the structure may show the parent alone.

What was measured:
Assay type in all cases: biochemical
[1] = biological target: T1, recombinant human MAO-B (monoamine oxidase-B) (Homo sapiens, UniProt P27338); test: Activity on recombinant human MAO-B, method similar to the VAP-1 assay; settings: substrate 1 mM benzylamine; read-out: Inhibitory Activity (IC50, nM) MAO-B
T1 construct: purchased Sigma-Aldrich
T1 sequence (P27338 1-520): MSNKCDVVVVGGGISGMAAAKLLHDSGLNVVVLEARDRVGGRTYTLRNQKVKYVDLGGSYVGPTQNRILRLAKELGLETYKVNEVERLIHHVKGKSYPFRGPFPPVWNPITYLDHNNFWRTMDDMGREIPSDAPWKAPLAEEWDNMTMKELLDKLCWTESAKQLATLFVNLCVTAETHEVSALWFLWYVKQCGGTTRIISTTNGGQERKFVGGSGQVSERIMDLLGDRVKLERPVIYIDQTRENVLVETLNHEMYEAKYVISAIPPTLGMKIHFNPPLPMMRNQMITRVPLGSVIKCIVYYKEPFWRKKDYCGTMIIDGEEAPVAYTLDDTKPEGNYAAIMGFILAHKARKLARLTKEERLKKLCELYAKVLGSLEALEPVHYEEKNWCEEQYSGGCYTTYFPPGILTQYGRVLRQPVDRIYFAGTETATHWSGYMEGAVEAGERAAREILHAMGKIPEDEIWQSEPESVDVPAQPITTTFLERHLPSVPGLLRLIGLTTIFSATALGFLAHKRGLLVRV
Method in brief: (§1)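 8-point, 1:3 dose-response, four-parameter logistic IC50 from reduction in fluorescence rate versus DMSO control. HRP/Amplex Red detection of H2O2 (ex 544, em 590 nm) after 30 min, 37 °C compound–enzyme preincubation in pH 7.4 phosphate buffer. MAO-A substrate: 0.5 mM tyramine; MAO-B: 1 mM benzylamine.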

[2] = biological target: T2, recombinant human MAO-A (monoamine oxidase-A) (Homo sapiens, UniProt P21397); test: Activity on recombinant human MAO-A, method similar to the VAP-1 assay; settings: substrate 0.5 mM tyramine; read-out: Inhibitory Activity (IC50, nM) MAO-A
T2 construct: purchased Sigma-Aldrich
T2 sequence (P21397 1-527): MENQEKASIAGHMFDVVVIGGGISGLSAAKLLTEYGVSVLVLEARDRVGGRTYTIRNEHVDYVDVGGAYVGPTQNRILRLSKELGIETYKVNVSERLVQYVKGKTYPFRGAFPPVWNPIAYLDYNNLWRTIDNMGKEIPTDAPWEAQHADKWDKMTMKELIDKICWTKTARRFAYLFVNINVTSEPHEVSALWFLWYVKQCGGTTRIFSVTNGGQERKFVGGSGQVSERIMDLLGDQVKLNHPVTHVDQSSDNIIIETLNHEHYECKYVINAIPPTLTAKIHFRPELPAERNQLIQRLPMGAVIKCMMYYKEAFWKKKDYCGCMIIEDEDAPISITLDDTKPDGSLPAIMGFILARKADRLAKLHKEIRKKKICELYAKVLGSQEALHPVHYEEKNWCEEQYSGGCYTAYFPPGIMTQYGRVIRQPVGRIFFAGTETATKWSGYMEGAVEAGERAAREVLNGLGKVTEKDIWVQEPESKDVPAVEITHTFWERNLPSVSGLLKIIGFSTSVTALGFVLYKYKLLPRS
Method in brief: as §1

[3] = biological target: T3, recombinant human DAO (diamine oxidase) (Homo sapiens, UniProt P19801); test: Activity on recombinant human DAO, method similar to the VAP-1 assay; settings: substrate 1 mM putrescine; read-out: Inhibitory Activity (IC50, nM) DAO
T3 construct: purchased R&D systems
T3 sequence (P19801 20-751): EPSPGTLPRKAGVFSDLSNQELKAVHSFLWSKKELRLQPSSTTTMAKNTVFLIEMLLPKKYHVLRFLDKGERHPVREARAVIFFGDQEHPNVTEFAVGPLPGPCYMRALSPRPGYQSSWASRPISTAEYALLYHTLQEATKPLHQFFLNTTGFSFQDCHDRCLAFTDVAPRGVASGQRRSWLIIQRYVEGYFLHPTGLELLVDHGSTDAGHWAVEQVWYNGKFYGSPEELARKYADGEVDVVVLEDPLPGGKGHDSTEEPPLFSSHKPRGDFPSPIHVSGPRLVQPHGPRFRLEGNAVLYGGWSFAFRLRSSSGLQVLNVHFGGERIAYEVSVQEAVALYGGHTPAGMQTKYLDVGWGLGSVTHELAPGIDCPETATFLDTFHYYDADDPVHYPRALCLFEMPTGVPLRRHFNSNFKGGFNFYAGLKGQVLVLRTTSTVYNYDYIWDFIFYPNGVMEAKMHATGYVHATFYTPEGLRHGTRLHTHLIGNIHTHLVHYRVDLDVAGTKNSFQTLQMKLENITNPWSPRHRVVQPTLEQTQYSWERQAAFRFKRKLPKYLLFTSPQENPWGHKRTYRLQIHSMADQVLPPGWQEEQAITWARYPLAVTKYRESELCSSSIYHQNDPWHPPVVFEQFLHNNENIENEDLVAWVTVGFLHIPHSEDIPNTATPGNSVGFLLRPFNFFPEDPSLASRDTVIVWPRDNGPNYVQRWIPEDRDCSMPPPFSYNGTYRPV
Method in brief: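 Inhibition of recombinant human diamine oxidase (DAO, R&D systems) was assessed by the same approach as the VAP-1 assay, using 1 mM putrescine as substrate. Hydrogen peroxide formed was detected through an HRP-coupled Amplex Red reaction yielding fluorescent resorufin, read at 544 nm excitation and 590 nm emission. IC50 values came from four-parameter logistic fitting in GraphPad Prism.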

recombinant human VAP-1 = biological target: T4, recombinant human VAP-1 (Homo sapiens, UniProt Q16853); test: Activity on recombinant human VAP-1, HRP-coupled Amplex Red hydrogen peroxide assay; settings: substrate 1 mM benzylamine; compound incubated with enzyme at 37° C. for 30 minutes; pH 7.4; read-out: Inhibitory Activity (IC50, nM) human VAP-1
T4 construct: purchased R&D systems
T4 sequence (Q16853 1-763): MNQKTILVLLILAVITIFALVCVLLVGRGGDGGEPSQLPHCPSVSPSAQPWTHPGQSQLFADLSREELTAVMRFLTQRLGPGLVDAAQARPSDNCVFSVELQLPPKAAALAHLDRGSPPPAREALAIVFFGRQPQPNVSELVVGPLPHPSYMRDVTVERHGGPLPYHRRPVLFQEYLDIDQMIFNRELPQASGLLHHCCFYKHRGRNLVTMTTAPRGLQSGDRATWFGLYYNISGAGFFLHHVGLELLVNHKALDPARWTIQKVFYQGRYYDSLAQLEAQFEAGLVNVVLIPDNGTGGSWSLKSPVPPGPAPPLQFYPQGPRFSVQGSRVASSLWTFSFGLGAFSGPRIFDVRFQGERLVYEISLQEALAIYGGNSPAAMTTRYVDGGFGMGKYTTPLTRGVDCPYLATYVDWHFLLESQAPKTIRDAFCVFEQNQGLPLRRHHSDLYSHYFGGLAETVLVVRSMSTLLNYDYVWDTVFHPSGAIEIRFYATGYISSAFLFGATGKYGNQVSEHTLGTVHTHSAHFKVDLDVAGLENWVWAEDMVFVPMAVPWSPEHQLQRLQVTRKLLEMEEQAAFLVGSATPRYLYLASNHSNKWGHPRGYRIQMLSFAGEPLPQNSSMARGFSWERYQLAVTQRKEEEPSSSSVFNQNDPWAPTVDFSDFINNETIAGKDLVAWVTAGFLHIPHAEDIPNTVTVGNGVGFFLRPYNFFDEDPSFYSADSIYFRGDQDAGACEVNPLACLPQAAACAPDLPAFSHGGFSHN
Method in brief: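 Compounds were preincubated with purified enzyme in 50 mM sodium phosphate pH 7.4 at 37 °C for 30 min, then 200 uM Amplex Red, 1 mM benzylamine and 1 U/mL HRP were added. Resorufin fluorescence (ex 544/em 590 nm) was followed over 1-2 h; IC50 came from 4-parameter fits of signal-rate inhibition.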

IC50 [1] [nM] | IC50 [2] [nM] | IC50 [3] [nM] | IC50 (recombinant human VAP-1) [nM] | Structure (SMILES)
> 10000 | > 100000 | 250 | 0.6 | Cn1cnc2cc(/C=C/c3ccc(Cn4cnn(C/C(=C/F)CN)c4=O)s3)cnc21 [Example 123, 2-[(E)-2-(aminomethyl)-3-fluoro-allyl]-4-[[5-[(E)-2-(3-methylimidazo[4,5-b]pyridin-6-yl)vinyl]-2-thienyl]methyl]-1,2,4-triazol-3-one hydrochloride]
5100 | > 100000 | 270 | 0.1 | NC/C(=C\F)Cn1ncn(Cc2ccc(/C=C/c3cnc4c(c3)NC(=O)CO4)s2)c1=O [Example 124, 7-[(E)-2-[5-[[1-[(E)-2-(aminomethyl)-3-fluoro-allyl]-5-oxo-1,2,4-triazol-4-yl]methyl]-2-thienyl]vinyl]-1H-pyrido[2,3-b][1,4]oxazin-2-one hydrochloride]
2100 | > 100000 | 1600 | 3.5 | NC/C(=C\F)Cn1ncn(Cc2ccc(C#Cc3cccc(N)c3)s2)c1=O [Example 125, 2-[(2E)-2-(aminomethyl)-3-fluoroprop-2-en-1-yl]-4-(5-[(3-aminophenyl)ethynyl]thiophen-2-ylmethyl)-2,4-dihydro-3H-1,2,4-triazol-3-one hydrochloride]
250 | 57000 | 1000 | 3.4 | COc1ccc(C#Cc2ccc(Cn3cnn(C/C(=C/F)CN)c3=O)s2)cc1 [Example 126, 2-[(2E)-2-(aminomethyl)-3-fluoroprop-2-en-1-yl]-4-(5-[(4-methoxyphenyl)ethynyl]thiophen-2-ylmethyl)-2,4-dihydro-3H-1,2,4-triazol-3-one hydrochloride]
150 | > 100000 | 910 | 0.8 | NC/C(=C\F)Cn1ncn(Cc2ccc(C#Cc3cccnc3)s2)c1=O [Example 127, 2-[(2E)-2-(aminomethyl)-3-fluoroprop-2-en-1-yl]-4-[5-(pyridin-3-ylethynyl)thiophen-2-yl]methyl-2,4-dihydro-3H-1,2,4-triazol-3-one hydrochloride]
490 | 30000 | 9800 | 0.7 | CN(C)c1ccc(C#Cc2ccc(Cn3cnn(C/C(=C/F)CN)c3=O)s2)cn1 [Example 128, 2-[(E)-2-(aminomethyl)-3-fluoro-allyl]-4-[[5-[2-[6-(dimethylamino)-3-pyridyl]ethynyl]-2-thienyl]methyl]-1,2,4-triazol-3-one]
770 | > 100000 | 360 | 0.6 | NC/C(=C\F)Cn1ncn(Cc2ccc(C#Cc3ccc(N4CCOCC4)nc3)s2)c1=O [Example 129, 2-[(E)-2-(aminomethyl)-3-fluoro-allyl]-4-[[5-[2-(6-morpholino-3-pyridyl)ethynyl]-2-thienyl]methyl]-1,2,4-triazol-3-one hydrochloride]
440 | 57400 | 1500 | 0.5 | Cn1cncc1C#Cc1ccc(Cn2cnn(C/C(=C/F)CN)c2=O)s1 [Example 130, 2-[(2E)-2-(aminomethyl)-3-fluoroprop-2-en-1-yl]-4-(5-[(1-methyl-1H-imidazol-5-yl)ethynyl]thiophen-2-ylmethyl)-2,4-dihydro-3H-1,2,4-triazol-3-one hydrochloride]
240 | > 100000 | 1300 | 2.3 | Cn1cc(C#Cc2ccc(Cn3cnn(C/C(=C/F)CN)c3=O)s2)cn1 [Example 131, 2-[(2E)-2-(aminomethyl)-3-fluoroprop-2-en-1-yl]-4-(5-[(1-methyl-1H-pyrazol-4-yl)ethynyl]thiophen-2-ylmethyl)-2,4-dihydro-3H-1,2,4-triazol-3-one hydrochloride]
2500 | > 100000 | 1400 | 3.1 | NC/C(=C\F)Cn1ncn(Cc2ccc(C#CCN3CCS(=O)(=O)CC3)s2)c1=O [Example 132, 2-[(2E)-2-(aminomethyl)-3-fluoroprop-2-en-1-yl]-4-(5-[3-(1,1-dioxidothiomorpholin-4-yl)prop-1-yn-1-yl]thiophen-2-ylmethyl)-2,4-dihydro-3H-1,2,4-triazol-3-one hydrochloride]
180 | 49000 | 530 | 0.2 | NC/C(=C\F)Cn1ncn(Cc2ccc(C#Cc3ccc4c(c3)CCC(=O)N4)s2)c1=O [Example 133, 6-[2-[5-[[1-[(E)-2-(aminomethyl)-3-fluoro-allyl]-5-oxo-1,2,4-triazol-4-yl]methyl]-2-thienyl]ethynyl]-3,4-dihydro-1H-quinolin-2-one hydrochloride]
300 | 7100 | 2100 | 2 | NC/C(=C\F)Cn1ncn(Cc2ccc(C#Cc3ccc4c(c3)NCCO4)s2)c1=O [Example 134, 2-[(E)-2-(aminomethyl)-3-fluoro-allyl]-4-[[5-[2-(3,4-dihydro-2H-1,4-benzoxazin-6-yl)ethynyl]-2-thienyl]methyl]-1,2,4-triazol-3-one]
